Measured values from ChEMBL document CHEMBL4680271, “COVID-19: Drug Targets and Potential Treatments” (J Med Chem, 2020).
pIC50: −log10 of the molar value.

Test: Inhibition of CTSL/CTSB in 293T/17 cells harboring ACE2 assessed as reduction in SARS-CoV-2 S pseudovirions entry into host cell incubated for 2 days by luciferase method
Format: cell-based
Conditions: Severe acute respiratory syndrome-related coronavirus, HEK293T/17, 48 h

SMILES | pIC50
CN1CCN(C(=O)N[C@@H](Cc2ccccc2)C(=O)N[C@H](/C=C/S(=O)(=O)c2ccccc2)CCc2ccccc2)CC1 [K-777] | 9.49
CC(C)(C)N1CCN(C(=O)N[C@@H](Cc2ccccc2)C(=O)N[C@H](/C=C/S(=O)(=O)c2ccccc2)CCc2ccccc2)CC1 | 10.10
